Laboratory results from patent US20260184710A1, “CASITAS B-LINEAGE LYMPHOMA PROTOONCOGENE B (CBL-B) DEGRADING COMPOUNDS AND ASSOCIATED METHODS OF USE” (Arvinas Operations, Inc., priority 2022, published 2026).

Experiments:
Cbl-b [1] = molecular target: T1, Cbl-b (Homo sapiens, UniProt Q13191); test: Cbl-b Degradation Method B (Nano-Glo HiBiT lytic detection); type: cell-based; conditions: Cbl-b-HiBit KI Jurkat Cells, incubated at least 6-24 hours; for DC50: half maximal degradation, read-out: Cbl-b Degredation Method B IC50; for Cbl-b Degredation Method B Dmax (%) / Dmax: maximum degradation observed; for Dmax: read-out: Cbl-b Degredation Method B Dmax (%)
T1 construct: Cbl-b-HiBit KI Jurkat Cells were purchased from Promega; host or cells: Cbl-b-HiBiT knock-in Jurkat cells
T1 sequence (Q13191 whole entry): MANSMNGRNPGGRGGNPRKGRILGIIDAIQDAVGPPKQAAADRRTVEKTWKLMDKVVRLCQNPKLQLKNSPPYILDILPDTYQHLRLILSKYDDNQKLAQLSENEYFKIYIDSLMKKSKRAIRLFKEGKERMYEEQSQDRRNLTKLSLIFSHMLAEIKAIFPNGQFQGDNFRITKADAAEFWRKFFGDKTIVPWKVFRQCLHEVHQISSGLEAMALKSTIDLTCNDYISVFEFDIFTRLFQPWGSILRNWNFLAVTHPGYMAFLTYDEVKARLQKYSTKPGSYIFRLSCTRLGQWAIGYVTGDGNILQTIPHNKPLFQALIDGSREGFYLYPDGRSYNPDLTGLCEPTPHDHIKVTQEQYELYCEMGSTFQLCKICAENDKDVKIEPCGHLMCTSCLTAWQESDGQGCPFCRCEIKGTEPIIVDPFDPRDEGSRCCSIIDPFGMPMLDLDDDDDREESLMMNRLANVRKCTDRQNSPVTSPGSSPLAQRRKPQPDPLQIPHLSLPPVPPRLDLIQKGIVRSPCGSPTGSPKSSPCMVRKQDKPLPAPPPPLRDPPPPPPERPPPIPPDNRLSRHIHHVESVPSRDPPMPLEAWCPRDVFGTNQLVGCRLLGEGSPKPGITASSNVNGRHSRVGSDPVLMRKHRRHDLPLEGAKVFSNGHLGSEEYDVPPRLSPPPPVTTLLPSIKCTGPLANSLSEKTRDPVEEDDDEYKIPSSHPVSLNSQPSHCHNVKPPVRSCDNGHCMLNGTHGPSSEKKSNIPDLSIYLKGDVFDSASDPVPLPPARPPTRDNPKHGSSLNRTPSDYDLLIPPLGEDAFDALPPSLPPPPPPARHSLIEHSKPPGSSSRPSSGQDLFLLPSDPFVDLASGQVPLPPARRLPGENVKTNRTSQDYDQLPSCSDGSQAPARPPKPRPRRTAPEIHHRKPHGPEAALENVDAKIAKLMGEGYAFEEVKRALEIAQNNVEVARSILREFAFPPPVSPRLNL
Summary of the method: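 Cbl-b-HiBiT knock-in Jurkat cells (20,000/well) were treated after ~24 h plating with an 11-point 1:3 series for 6-24 h at 37° C. Remaining Cbl-b measured by Nano-Glo HiBiT lytic luminescence. DC50 and Dmax expressed as % of control.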

Cbl-b [2] = molecular target: T1, Cbl-b; test: Cbl-b Degradation Method A (FACS, anti-Cbl-b antibody staining); type: cell-based; conditions: Cbl-b-HiBit KI Jurkat Cells, incubated at least 20 hours; for DC50: half maximal degradation, read-out: Cbl-b Degredation Method A IC50; for Dmax: Jurkat, maximum degradation observed, read-out: Cbl-b Degredation Method A Dmax (%)
Experimental: Cbl-b Degradation Method A
Cbl-b-HiBit KI Jurkat Cells were purchased from Promega, and cell media consisted of RPMI 1640 with 10% FBS and 1% pen/strep. The cells were counted, measured for viability, and 100 μL of the cell solution was into 96 well flat bottom plates at a ratio of 290,000 cells per 100 μL. Compounds were dissolved in DMSO to make a 10 mM stock solution, which was diluted with cell media. 100 μL of the diluted compound mixture was added to the wells. The plate was incubated for at least 20 hours at 37° C. and 5% CO2. After incubation, the plate was shaken at 700-750 RMP for 15-30 minutes to ensure cells were removed from the wells. The wells were transferred to a 96-well v-bottom plate and spun for 2200 RPM for 3 minutes. The supernatant was removed, cells re-suspended in 100 μL of the fixative, and subsequently incubated at room temperature for 15 minutes. Afterwards, 150 μL of DPBS was added to each well, and the cells were centrifuged at 2500 RPM for 3 minutes. The supernatant was removed and the plate was chilled on ice for 2-3 minutes. While still on the ice, 100 μL of Perm III was added to each well, the wells mixed, and subsequently left on the ice for another 15 minutes. Afterwards, the plate was removed from the ice, 150 μL of DBPS was added to each well, and the cells centrifuged at 2700 RPM for 3 minutes. The supernatant was removed, and an additional 200 μL of was DPBS was added to each well, followed by centrifuging at 2700 RPM for 3 minutes, after which the supernatant was removed. The anti-Cbl-b antibody was diluted 1:200 in 1× Perm Wash buffer and 50 μL of the antibody mixture was added to each well and mixed. After addition, the plate was incubated for 35-45 minutes at room temperature. After incubation, 200 μL of DPBS was added to each wells, and the plate centrifuged at 2700 RPM for 3 minutes, followed by the removal of the supernatant. The washing step was repeated by adding 200 μL of DPBS to each wells followed by centrifuge at 2700 RPM for 3 minutes and removal of the supernatant. The a-Rabbit-AF488 antibody was diluted 1:1000 in Perm Wash buffer, 50 μL of the dilution added to each well, and mixed. After mixing, the plate was incubated for 30 minutes at room temperature in the dark. Subsequently, the supernatant was removed, and 200 μL of DBPS added to the cells, which were then centrifuged at 2900 RPM for 4 minutes. The supernatant was removed, and an additional 95 μL of DBPS was added to the wells and mixed. The cells were then transferred to a round bottom polypropylene plate and analyzed using FACS with the parameters below:
The concentration of an exemplary compound that leads to half maximal degradation (DC50) as well as the maximum degradation observed (Dmax, conventionally expressed as a percentage of control) is shown below in Table 2.

| Compound | DC50 (Cbl-b [1]) [nM] | Cbl-b Degredation Method B Dmax (%) (Cbl-b [1]) | DC50 (Cbl-b [2]) [nM] | Dmax (Cbl-b [2]) [%] | Dmax (Cbl-b [1]) [%] |
| --- | --- | --- | --- | --- | --- |
| Cn1cnnc1CC1(c2cccc(N3Cc4c(cc(N5CCC(COCCOc6ccc7c(c6)C(=O)N(C6CCC(=O)NC6=O)C7=O)CC5)cc4C(F)(F)F)C3=O)c2)COC1 (centres unmarked) [Example 15, 2-(2,6-dioxo-3-piperidyl)-5-[2-[[1-[2-[3-[3-[(4-methyl-1,2,4-triazol-3-yl)methyl]oxetan-3-yl]phenyl]-3-oxo-7-(trifluoromethyl)isoindolin-5-yl]-4-piperidyl]methoxy]ethoxy]isoindoline-1,3-dione] | > 500 | – | 50 to 500 | 35 to 70 | – |
| Cn1cnnc1CC1(c2cccc(N3Cc4c(cc(CN5CCC[C@H](CN6CCC(C7CCN(c8ccc9c(c8)C(=O)N(C8CCC(=O)NC8=O)C9=O)CC7)CC6)C5)cc4C(F)(F)F)C3=O)c2)COC1 (stereo partly drawn) [Example 96, 2-(2,6-dioxopiperidin-3-yl)-5-(1′-{[(3R)-1-{[2-(3-{3-[(4-methyl-4H-1,2,4-triazol-3-yl)methyl]oxetan-3-yl}phenyl)-3-oxo-7-(trifluoromethyl)-2,3-dihydro-1H-isoindol-5-yl]methyl}piperidin-3-yl]methyl}-[4,4′-bipiperidin]-1-yl)-2,3-dihydro-1H-isoindole-1,3-dione] | > 500 | – | > 500 | – | – |
| Cn1cnnc1CC1(c2cccc(N3Cc4c(cc(N5CCC(C6CN(c7ccc8c(c7)C(=O)N(C7CCC(=O)NC7=O)C8=O)C6)CC5)cc4C(F)(F)F)C3=O)c2)COC1 (centres unmarked) [Example 128, 2-(2,6-dioxopiperidin-3-yl)-5-(3-{1-[2-(3-{3-[(4-methyl-4H-1,2,4-triazol-3-yl)methyl]oxetan-3-yl}phenyl)-3-oxo-7-(trifluoromethyl)-2,3-dihydro-1H-isoindol-5-yl]piperidin-4-yl}azetidin-1-yl)-2,3-dihydro-1H-isoindole-1,3-dione] | > 500 | – | > 500 | – | – |
| CC1c2nc(N3CCC(O[C@H]4CC[C@H](CN5CCC6(C5)CN(c5cc7c(c(C(F)(F)F)c5)CN(c5cccc([C@]8(Cc9nncn9C)C[C@@H](C#N)C8)c5)C7=O)C6)CC4)CC3)ccc2C(=O)N1C1CCC(=O)NC1=O (some centres unmarked) [Example 178, (1r,3r)-3-[(4-methyl-4H-1,2,4-triazol-3-yl)methyl]-3-{3-[1-oxo-6-(6-{[(1r,4r)-4-({1-[6-(2,6-dioxopiperidin-3-yl)-7-methyl-5-oxo-5H,6H,7H-pyrrolo[3,4-b]pyridin-2-yl]piperidin-4-yl}oxy)cyclohexyl]methyl}-2,6-diazaspiro[3.4]octan-2-yl)-4-(trifluoromethyl)-2,3-dihydro-1H-isoindol-2-yl]phenyl}cyclobutane-1-carbonitrile] | < 5 | – | 5 to 50 | 35 to 70 | 35 to 70 |
| CC1c2nc(N3CCC(O[C@H]4CC[C@H](CN5CCN(Cc6cc7c(c(C(F)(F)F)c6)CN(c6cccc(C8(c9nncn9C)CCO8)c6)C7=O)C(C)(C)C5)CC4)CC3)ccc2C(=O)N1C1CCC(=O)NC1=O (some centres unmarked) [Example 281, 3-[7-methyl-5-oxo-2-(4-{[(1r, 4r)-4-({3,3-dimethyl-4-[(2-{3-[2-(4-methyl-4H-1,2,4-triazol-3-yl)oxetan-2-yl]phenyl}-3-oxo-7-(trifluoromethyl)-2,3-dihydro-1H-isoindol-5-yl)methyl]piperazin-1-yl}methyl)cyclohexyl]oxy}piperidin-1-yl)-5H, 6H, 7H-pyrrolo[3,4-b]pyridin-6-yl]piperidine-2,6-dione] | < 5 | C (C ≤ 35) | 5 to 50 | 35 to 70 | – |

Second part, the molecule after the results:

| DC50 (Cbl-b [1]) [nM] | Cbl-b Degredation Method B Dmax (%) (Cbl-b [1]) | DC50 (Cbl-b [2]) [nM] | Dmax (Cbl-b [2]) [%] | Dmax (Cbl-b [1]) [%] | Compound |
| --- | --- | --- | --- | --- | --- |
| < 5 | C (C ≤ 35) | 50 to 500 | 35 to 70 | – | CC(C)n1c(=O)n(C2CCC(=O)NC2=O)c2ccc(N3CCC(O[C@H]4CC[C@H](CN5CCN(Cc6cc7c(c(C(F)(F)F)c6)CN(c6cccc(C8(Cc9nncn9C)CC(C#N)C8)c6)C7=O)C(C)(C)C5)CC4)CC3)c(F)c21 (some centres unmarked) [Example 318, (1r**,3r**)-3-(3-{6-[(2,2-dimethyl-4-{[(1r*,4r*)-4-({1-[1-(2,6-dioxopiperidin-3-yl)-4-fluoro-2-oxo-3-(propan-2-yl)-2,3-dihydro-1H-1,3-benzodiazol-5-yl]piperidin-4-yl}oxy)cyclohexyl]methyl}piperazin-1-yl)methyl]-1-oxo-4-(trifluoromethyl)-2,3-dihydro-1H-isoindol-2-yl}phenyl)-3-[(4-methyl-4H-1,2,4-triazol-3-yl)methyl]cyclobutane-1-carbonitrile] |
| < 5 | – | < 5 | 35 to 70 | 35 to 70 | Cn1cnnc1CC1(c2cccc(N3Cc4c(cc(N5CC6(CCN(CC7CCN(c8ccc9c(c8Cl)CN(C8CCC(=O)NC8=O)C9=O)CC7)CC6)C5)cc4C(F)(F)F)C3=O)c2)COC1 (centres unmarked) [Example 4, 3-{4-chloro-5-[4-({2-[2-(3-{3-[(4-methyl-4H-1,2,4-triazol-3-yl)methyl]oxetan-3-yl}phenyl)-3-oxo-7-(trifluoromethyl)-2,3-dihydro-1H-isoindol-5-yl]-2,7-diazaspiro[3.5]nonan-7-yl}methyl)piperidin-1-yl]-1-oxo-2,3-dihydro-1H-isoindol-2-yl}piperidine-2,6-dione] |
| < 5 | – | 5 to 50 | 35 to 70 | 35 to 70 | CC1CN(C[C@H]2CC[C@H](OC3CCN(c4ccc5c(n4)C(C)N(C4CCC(=O)NC4=O)C5=O)CC3)CC2)CCN1Cc1cc2c(c(C(F)(F)F)c1)CN(c1cccc(C3(Cc4nncn4C)CC3)c1)C2=O (some centres unmarked) [Example 212, 3-[7-methyl-5-oxo-2-(4-{[(1r,4r)-4-[(3-methyl-4-{[2-(3-{1-[(4-methyl-4H-1,2,4-triazol-3-yl)methyl]cyclopropyl}phenyl)-3-oxo-7-(trifluoromethyl)-2,3-dihydro-1H-isoindol-5-yl]methyl}piperazin-1-yl)methyl]cyclohexyl]oxy}piperidin-1-yl)-5H,6H,7H-pyrrolo[3,4-b]pyridin-6-yl]piperidine-2,6-dione] |
| < 5 | – | < 5 | > 70 | > 70 | CC1c2nc(N3CCC(O[C@H]4CC[C@H](CN5CCN(Cc6cc7c(c(C(F)(F)F)c6)CN(c6cccc(C8(Cc9nncn9C)COC8)c6)C7=O)CC5(C)C)CC4)CC3)ccc2C(=O)N1C1CCC(=O)NC1=O (mixture of isomers) [Example 236, rac-3-[7-methyl-5-oxo-2-(4-{[(1r,4r)-4-[(2,2-dimethyl-4-{[2-(3-{3-[(4-methyl-4H-1,2,4-triazol-3-yl)methyl]oxetan-3-yl}phenyl)-3-oxo-7-(trifluoromethyl)-2,3-dihydro-1H-isoindol-5-yl]methyl}piperazin-1-yl)methyl]cyclohexyl]oxy}piperidin-1-yl)-5H,6H,7H-pyrrolo[3,4-b]pyridin-6-yl]piperidine-2,6-dione] |
| < 5 | – | 5 to 50 | 35 to 70 | 35 to 70 | Cc1cc(N2CCC(CN3CCC4(CCN(c5cc6c(c(C(F)(F)F)c5)CN(c5cccc([C@]7(Cc8nncn8C)C[C@@H](C#N)C7)c5)C6=O)C4)C3)CC2)c(F)c2c1C(=O)N(C1CCC(=O)NC1=O)C2 (some centres unmarked) [Example 177, (1r,3r)-3-(3-{6-[7-({1-[2-(2,6-dioxopiperidin-3-yl)-4-fluoro-7-methyl-1-oxo-2,3-dihydro-1H-isoindol-5-yl]piperidin-4-yl}methyl)-2,7-diazaspiro[4.4]nonan-2-yl]-1-oxo-4-(trifluoromethyl)-2,3-dihydro-1H-isoindol-2-yl}phenyl)-3-[(4-methyl-4H-1,2,4-triazol-3-yl)methyl]cyclobutane-1-carbonitrile] |
